Laboratory results: paper PMC7180452, “Purine and Purine Isostere Derivatives of Ferrocene: An Evaluation of ADME, Antitumor and Electrochemical Properties” (Molecules, 2020)

Assays:
[1] = Square-wave and cyclic voltammetry on glassy carbon electrode; type: physicochemical; settings: SWV, 0.5 mol/L NaClO4, pH 9, vs Ag/AgCl
From the text: The electrochemical properties of 6-chloro-7-deazapurine and 6-chloropurine derivatives of ferrocene 11c, 13a and 15b on a glassy carbon electrode were studied using cyclic (CV) and square-wave voltammetry (SWV) in aqueous electrolyte solutions over a wide pH range. The pH was varied from 2 to 10 in order to determine the effect of pH on the voltammograms (net peak currents and potentials). […] The pH of the solution affects the voltammetric response of this compound, i.e., the oxidation of evaluated compounds 11c, 13a and 15b is strongly dependent on it.
The forward (if) and backward (ib) components of the net response (Δi = if − ib) are shown as well (inset in Figure 2). […] The peak P1 occurs in all supporting electrolytes (i.e., at 2 ≤ pH ≤ 10), while the peak P2 is only observed at pH ≥ 9 (see Figure 1). The potential of peak P1 is pH-independent. Comparing to the literature data, peak P1 can be ascribed to the following charge transfer reaction [Fe^II(C5H5)2] ⇌ [Fe^III(C5H5)2]^+ + e^− [44, 48].
All chemicals used in the experiments were of the best grade commercially available (Sigma-Aldrich) and were used without further purification. Stock standard solutions of compounds 11c, 13a, 15b (c = 2.0 × 10^−3 mol/L) and 6-chloropurine (c = 1.2 × 10^−2 mol/L) were prepared from dry pure substances in dimethyl sulfoxide (DMSO, p.a.), purchased from Kemika (Zagreb, Croatia). Stock standard solution of ethynyl ferrocene (c = 1.1 × 10^−2 mol/L) was prepared from dry pure substance in ethanol (Kemika). For the supporting electrolyte, analytical grade NaClO4 (Kemika) was used. Water was deionized by the Millipore Milli-Q system to the resistivity ≥ 18 MΩcm. Voltammetric measurements were carried out using the computer-controlled electrochemical system „PGSTAT 101“ (Eco-Chemie, Utrecht, The Netherlands), controlled by the electrochemical software “NOVA 1.5”. A three-electrode system (BioLogic, Claix, France) with glassy carbon electrode (GCE) of 3 mm in diameter as a working electrode, Ag/AgCl (3 mol/L NaCl) as a reference electrode and a platinum wire as a counter electrode were used. All potentials were expressed versus Ag/AgCl (3 mol/L NaCl) reference electrode. The supporting electrolyte (0.5 mol/L NaClO4), adjusted to the desired pH value, was placed in the electrochemical cell and the required aliquot of the standard analyte solution was added. The solution in the electrochemical cell was degassed with high purity nitrogen for 10 min before measurement, and the nitrogen blanket was maintained thereafter. Before each run, the glassy carbon working electrode was polished with diamond suspension in spray (grain size 6 µm) and rinsed with ethanol and deionized water. All experiments were performed at room temperature. The presented results are reported as the mean value of three independent measurements.

[2] = system: metastatic colorectal adenocarcinoma (SW620); assay: In vitro antiproliferative activity, SW620; type: cell-based, human; settings: SW620 cells
Description: (§1) Antiproliferative activity of compounds 11a−11c, 12a−12c, 13a−13c, 14a−14c, 15a−15c, 16a, 23a−23c, 24a−24c, 25a−25c, 34a−34c and 35a−35c was evaluated in vitro on four human tumor cell lines (American Type Culture Collection, Manassas, VA, USA): metastatic colorectal adenocarcinoma (SW620), ductal pancreatic adenocarcinoma (CFPAC-1), hepatocellular carcinoma (HepG2) and cervical carcinoma (HeLa) as well as normal skin fibroblasts (HFF).

[3] = system: ductal pancreatic adenocarcinoma (CFPAC-1); assay: In vitro antiproliferative activity, CFPAC-1; type: cell-based, human; settings: CFPAC-1 cells
Description: as §1

[4] = pH 7.4
Description: The distribution coefficient Chrom logD, a parameter used to assess the lipophilicity of compounds [36, 37], was determined for novel purine and purine isosteres with a ferrocene motif as shown in Table 1.
The distribution coefficient, Chrom logD, was determined from compounds’ gradient retention times by employing a high-performance liquid chromatography method with fast acetonitrile gradient. Compounds were prepared for analysis in final concentration of 1.25 mM by dilution of 10 mM stock solutions in DMSO with acetonitrile. Aqueous mobile phase was 50 mM ammonium acetate adjusted with ammonia solution to pH 7.4 and the organic mobile phase was acetonitrile. A reversed phase HPLC column Luna C18, 50 × 3 mm i.d., 5 µm particle size (Phenomenex, Torrance, CA, USA) was used for analysis. Sample injection volume was 2 µL and the flow rate was 1 mL min^−1. All compounds were analysed in duplicates. Fast-gradient elution was as follows: from 0 to 100% of acetonitrile (0−3 min), 100% of acetonitrile (3.0−3.5 min), from 100 to 0% of acetonitrile (3.5−3.7 min), and re-equilibration with 100% of aqueous mobile phase (3.7−5.0 min). All measurements were performed on an HPLC-DAD instrument Agilent 1100 Series (Agilent Technologies, Santa Clara, CA, USA) coupled with a mass spectrometer Micromass Quattro API (Waters, MA, USA). MassLynx software, version 4.1 (Waters, Manchester, UK) was used for data acquisition and processing. Before compound analysis, a calibration step was performed. A set of standard compounds with literature CHI values [36] were plotted against gradient retention times to obtain a calibration equation, which was used to determine CHI value from the compounds’ retention times.

[5] = system: cervical carcinoma (HeLa); assay: In vitro antiproliferative activity, HeLa; type: cell-based, human; settings: HeLa cells
Description: as §1

[6] = system: hepatocellular carcinoma (HepG2); assay: In vitro antiproliferative activity, HepG2; type: cell-based, human; settings: HepG2 cells
Description: as §1

[7] = system: normal skin fibroblasts (HFF); assay: Cytotoxicity on non-tumor cells, HFF; type: cell-based, human
Description: as §1

Oxidation peak P2 potential (triazole) [1] | IC50 [2] [µM] | IC50 [3] [µM] | Chrom logD [4] | IC50 [5] [µM] | IC50 [6] [µM] | SMILES | IC50 [7] [µM]
No anodic peak P2 was detected | – | – | – | – | – | Clc1ncnc2nc[nH]c12 [6-chloropurine, reference compound] | –
No anodic peak P2 was detected | – | – | – | – | – | C#Cc1cc[cH-]c1.[Fe+2].c1cc[cH-]c1 [ethynyl ferrocene, reference compound] | –
– | > 100 | 87.6 ± 1.79 | >6.57 | 89.6 ± 7.64 | > 100 | CC([c-]1cccc1)n1cc(Cn2ccc3ccccc32)nn1.[Fe+2].c1cc[cH-]c1 (centres unmarked) [Compound 24b, 1-[1-(1-Ferrocenyl-1-methylmethyl-1,2,3-triazol-4-yl)methyl]-1H-indole] | > 100
– | > 100 | > 100 | 4.45 | > 100 | > 100 | [Fe+2].c1cc[cH-]c1.c1ccc2c(c1)ncn2Cc1cn(-[c-]2cccc2)nn1 [Compound 23c, 1-[1-(1-Ferrocenyl-1,2,3-triazol-4-yl)methyl]-1H-benzimidazole] | > 100
